In patent US20260028390A1, “ALPHA1-ANTITRYPSIN FOR USE IN THE TREATMENT OF DISEASES OR DISORDERS OF THE NERVOUS SYSTEM SUCH AS CHRONIC INFLAMMATORY DEMYELINATING POLYNEUROPATHY” (Ageronix SA, priority 2022, published 2026):
“And” between values parts separate entries of the source, which are not always exact repeats. Equal values may be shown once.

Assays:
[1] = system: Human Schwann cells; assay: TNFα-induced Schwann cell activation, target gene expression by qPCR; type: cell-based; conditions: AAT 50 μM pre-treatment 24 hours, TNFα 10 ng/mL 24 hours
Description: Human Schwann cells (P10351, Innoprot) were seeded in 12 well plates at 120000 cells per well in DMEM. Cells were pre-treated with either buffer (controls) or AAT (50 μM) for 24 hours before stimulation by TNFα (10 ng/mL). The plates were then incubated at 37° C. for 24 hours. The RNA was extracted and selected target gene expression was measured by qPCR.
The genes evaluated for their regulation included the NF-κB early gene response NFKBIA, as well as the TNFα and TNFR1 genes. Expression of the gene coding for the IL-6 pro-inflammatory cytokine was also evaluated.

[2] = Bodyweight, CIDP mouse model; type: in vivo; conditions: per animal, listed as hAAT
Description: C57BL/6 mice were received at 8 weeks of age and housed under controlled conditions for the duration of the study. Three groups of 4 animals each were assigned to the following subcutaneous treatments twice daily at 7:00 AM and 7:00 PM for 2 weeks, from 20 to 35 days after the start of disease induction: • Wild type (WT) mice receiving the vehicle, 0.9% NaCl (positive control) • CIDP mice receiving the vehicle, 0.9% NaCl (negative control) • CIDP mice receiving human AAT (AAT), 50 mg/kg per injection
Disease induction consisted in subcutaneous injection of mouse sciatic nerve homogenate in phosphate buffer saline (PBS)+Freund's adjuvant mixture at 10 mL/kg. For each treatment, 3 different body sites injections were performed. Control mice also received three subcutaneous injections of PBS+Freund's adjuvant at the same 3 different body sites.

[3] = system: C3-PMP22 transgenic mice (CMT1A); assay: Grip strength test, CMT1A mouse study (50 mg/kg twice daily); type: in vivo; conditions: for Grip strength (Mean ± SEM) / Grip strenght, Mean/animal / Grip strenght, set 1, individual animals / Grip strenght, set 2, individual animals / Grip strenght, set 3, individual animals: CMT1A + AAT
Text: As a murine model of CMT1A we used C3-PMP22 transgenic mice (B6.Cg-Tg(PMP22)C3Fbas/J, The Jackson Laboratory) which express three copies of a wild-type human peripheral myelin protein 22 (PMP22) gene (Verhamme, Camiel, et al. Journal of Neuropathology & Experimental Neurology 70.5 (2011): 386-398). Mice were housed in macrolon cages with filter hoods, in a continuously air-filtered room, thereby avoiding contamination. During experiments, paired animals were caged at a constant temperature with a day/night cycle of 12/12 hours. Animals were fed (control tap water and nutrition) ad libitum. Animal protocol is approved by the Animal Studies Committee of Languedoc Roussillon. This protocol and the laboratory procedures comply with French legislation, which implements the European Directives (Reference Number: D3417223, APAFIS #23920-2020020320279696 v3). Animal health was followed on a daily basis to ensure that only animals in good health enter the testing procedures and follow up the study.
Animals were split in 3 groups (wild-type control (subcutaneous 0.9% NaCl), CMT1A-vehicle (subcutaneous 0.9% NaCl), CMT1A-human alpha-1 antitrypsin (subcutaneous, twice daily, 50 mg/kg per injection)) of 3 mice each (3 weeks old males of 18±2.5 g at the beginning of study) and all went through the following protocol after 7 days of acclimation on site.
On the first and last day of treatment, the neuromuscular performance of animals was tested with a rotarod test, grip test and sciatic nerve electrophysiology test. After the last treatment at 8 weeks, these tests were repeated, and animals were sacrificed and the left sciatic nerve was sampled for histological evaluation of the number and size of […].
Grip strength test measures neuromuscular strength by assessing the animal's grasp of a metal grid. […] At the baseline, the differences of grip strengths between groups were not statistically significant.

[4] = system: Microglial (HMC3) cells; assay: IL6 and IL1B gene expression (qPCR) in IFNγ-induced microglia; type: cell-based, human; conditions: HMC3, IFNγ 10 ng/mL 24 h; AAT 25 μM or peptides 50 μM
Description: Microglial (HMC3) cells were seeded into 96-well plates at a density of approximately 2500 cells/well. Plasma derived AAT (Sigma, 25 μM) or peptide 8, peptide 9 or peptide 14 (Syngene, 50 μM) were added, and microglial activation was induced with interferon gamma (IFNγ) (10 ng/mL) for 24 h with no preincubation. Then, the RNA was extracted (RNAeasy mini kit, Qiagen) and the expression of the Interleukin-6 (IL6) and Interleukin-Ibeta (ILIB) genes were analysed. qPCR was performed with Syber green POWER UP master mix using 10 ng/well of cDNA in all gene expression results.

alpha1-antitrypsin (AAT) protein
NF-κb pathway transcripts [1]: downregulated | expression of genes modulated by TNF-induced oxidative stress response [1]: inhibited | Bodyweight ([2]; day 1 (before disease induction), in g (unit assumed)): 20.74 and 20.81 and 19.50 and 20.65 | Bodyweight ([2]; day 5 (before treatment), in g (unit assumed)): 20.92 and 21.07 and 20.12 and 20.71 | Bodyweight ([2]; day 9 (before treatment)): 21.26 (2×) and 20.54 and 21.00 | Bodyweight ([2]; day 13 (before treatment), in g (unit assumed)): 21.76 and 21.37 and 20.24 and 21.18 | Bodyweight ([2]; day 17 (before treatment), in g (unit assumed)): 21.92 and 21.54 and 21.35 and 21.90 | Bodyweight ([2]; day 20 (first treatment day), in g (unit assumed)): 22.06 and 21.58 and 21.41 and 22.04 | Bodyweight ([2]; day 23, in g (unit assumed)): 22.21 and 21.71 and 21.43 and 22.13 | Bodyweight ([2]; day 26, in g (unit assumed)): 22.31 and 21.78 and 21.47 and 22.20 | Bodyweight ([2]; day 29, in g (unit assumed)): 22.49 and 21.87 and 21.53 and 22.30 | Bodyweight ([2]; day 32, in g (unit assumed)): 22.68 and 22.00 and 21.64 and 22.45 | Bodyweight ([2]; day 35, in g (unit assumed)): 22.79 and 22.14 and 21.65 and 22.62 | Grip strength (Mean ± SEM) ([3]; 6 weeks old): 5.86 ± 0.57 newtons | Grip strenght, Mean/animal ([3]; 6 weeks old (baseline)): 5.10 Newtons and 6.97 Newtons and 5.51 Newtons | Grip strenght, set 1, individual animals ([3]; 6 weeks old (baseline)): 5.84 Newtons and 7.10 Newtons and 5.94 Newtons | Grip strenght, set 2, individual animals ([3]; 6 weeks old (baseline)): 7.62 Newtons and 7.19 Newtons and 3.08 Newtons | Grip strenght, set 3, individual animals ([3]; 6 weeks old (baseline)): 1.82 Newtons and 6.62 Newtons and 7.52 Newtons | Grip strenght, Mean/animal ([3]; 8 weeks old): 5.45 Newtons and 4.86 Newtons and 3.88 Newtons | Grip strenght, set 1, individual animals ([3]; 8 weeks old): 6.55 Newtons and 4.01 Newtons and 2.76 Newtons | Grip strenght, set 2, individual animals ([3]; 8 weeks old): 4.38 Newtons and 6.93 Newtons and 3.67 Newtons | Grip strenght, set 3, individual animals ([3]; 8 weeks old): 5.43 Newtons and 3.63 Newtons and 5.21 Newtons | Grip strength (Mean ± SEM) ([3]; 8 weeks old): 4.73 ± 0.46 newtons | grip strength compared to the control group ([3]; CMT1A mice treated with AAT, 8 weeks old): improvement | IL1B expression reduced by [4]: 60-70% | IL6 expression reduced by [4]: 30-40%
